Reference: patent publication US8410130B2, “Synthesis of 8H-3A-aza-cyclopenta [A ]indenes and 5,10-dihydropyrrolo[1,2-B]isoquinolines derivatives and their use as antitumor therapeutic agents” (Academia Sinica, priority 2007, dated 2013)

Key:
[1] = test system: CCRF-CEM human lymphoblastic leukemia cells; experiment: In vitro cytotoxicity, XTT assay, 72-hr incubation; format: cell-based; settings: Homo sapiens, CCRF-CEM
Excerpt: (§1) Human colon carcinoma HCT-116 cells, human prostate adenocarcinoma PC-3 and adenocarcinoma SK-OV-3 cells were obtained from American Type Culture Collection (ATCC, Rockville, Md.). Human mammary carcinoma (MX-1) tumor cells were obtained from MSKCC cell bank. The CCRF-CEM human lymphoblastic leukemia cells and their vinblastine resistant subline (CCRF-CEM/VBL, 680-fold resistance in vitro) were obtained from Dr. William Beck of the University of Illinois, Chicago, and CCRF-CEM/Taxol (330-fold resistance in vitro). Resistant cells CCRF-CEM/taxol were produced by exposing the parent cells to increasing sublethal concentration (IC50-IC90) of paclitaxel for six months.
(§2) In preparation for in vitro cytotoxicity assays, cells were cultured at an initial density 2-5×10^4 cells per milliliter. They were maintained in a 5% CO2-humidified atmosphere at 37° C. in RPMI medium 1640 (GIBCO/BRL) containing penicillin (100 units/mL), streptomycin (100 μg/mL, GIBCO/BRL), and 5% heat-inactivated FBS. For cells grown in suspension (such as CCRF-CEM and its sublines), cytotoxicity was measured, by using XTT microculture method in 96-well microtiter plates (Scudiero D A et al., Cancer Res. 1988, 48, 4827-4833). For solid tumor cells growing in a monolayer (such as MX-1 and HCT-116), cytotoxicity of the drug was determined, in duplicate, in 96-well microtiter plates by using the sulforhodamine B method (Skehan P et al., J. Natl. Cancer Inst 1990, 82, 1107-1112). For both methods, the absorbance of each well was measured with a microplate reader (Power Wave XS, Bio-Tek, Winooski, Vt.) after 72-hr incubation as described previously (Chou T-C et al., Proc. Natl. Acad. Sci. USA 2001, 98, 8113-8118). Dose-effect relationship data from 6 to 7 concentrations of each drug, in duplicate, were analyzed by using a computer program (Chou T-C et al., ComboSyn, Inc., Paramus, N J. 2005) based on the median-effect principle and plot (Chou T-C et al., Adv. Enzyme Regul. 1984, 22, 27-55; Chou T-C, Pharmacol. Rev. 2006, 58, 621-681).
(§3) The IC50 is defined by the concentration required to inhibit tumor cell growth by 50%. […] The growth inhibition of the compounds disclosed herein against human lymphoblastic leukemic cells (CCRF-CEM) and its drug-resistant sublines (resistant to vinblastine and taxol, CCRF-CEM/VBL and CCRF-CEM/taxol, respectively) is also shown in Table 5. […] Thus, the compounds disclosed herein are effective against multiple drug resistant tumors.

[2] = test system: CCRF-CEM/Taxol; experiment: In vitro cytotoxicity, XTT assay, taxol resistant subline; format: cell-based, human; settings: for IC50: Homo sapiens, CCRF-CEM, XTT assay, 72-hr incubation; for fold of cross-resistant, CCRF-CEM/Taxol vs IC50 of the parent cell line: numbers in brackets
Excerpt: as §1, §2, §3

[3] = test system: Human mammary carcinoma (MX-1) tumor cells; experiment: In vitro cytotoxicity, sulforhodamine B (SRB) assay; format: cell-based; settings: Homo sapiens, 72-hr incubation
Excerpt: as §1, §2, §3

[4] = test system: Human colon carcinoma HCT-116 cells; experiment: as above; format: cell-based; settings: Homo sapiens, HCT-116, 72-hr incubation
Excerpt: as §1, §2, §3

[5] = test system: CCRF-CEM/VBL; experiment: In vitro cytotoxicity, XTT assay, vinblastine resistant subline; format: cell-based, human; settings: for IC50: Homo sapiens, CCRF-CEM, XTT assay, 72-hr incubation; for fold of cross-resistant, CCRF-CEM/VBL vs IC50 of the parent cell line: numbers in brackets
Excerpt: as §1, §2, §3

**Q.** Which results are given for `CNC(=O)OCc1c(COC(=O)NC)c(-c2c(OC)cccc2OC)n2c1Cc1ccccc1-2` [DA-1127, Methylcarbamic acid 3-(2,6-dimethoxyphenyl)-2-methylcarbamoyloxymethyl-8H-3a-aza-cyclopenta[a]inden-1-ylmethyl ester]?
**A.** IC50 [1]: 640 nM; IC50 [2]: 616 nM; fold of cross-resistant, CCRF-CEM/Taxol vs IC50 of the parent cell line [2]: [0.96x]; IC50 [3]: 5480 nM; IC50 [4]: 1110 nM; IC50 [5]: 697 nM; fold of cross-resistant, CCRF-CEM/VBL vs IC50 of the parent cell line [5]: [1.08x]

**Q.** Which results are given for `CNC(=O)OCc1c(COC(=O)NC)c(-c2cc(OC)c(OC)c(OC)c2)n2c1Cc1ccccc1-2` [DA-1129, Methylcarbamic acid 3-(3,4,5-trimethoxyphenyl)-2-methylcarbamoyloxymethyl-8H-3a-aza-cyclopenta[a]inden-1-ylmethyl ester]?
**A.** IC50 [1]: 11800 nM; IC50 [2]: 14300 nM; fold of cross-resistant, CCRF-CEM/Taxol vs IC50 of the parent cell line [2]: [1.21x]; IC50 [3]: 7250 nM; IC50 [4]: 1830 nM; IC50 [5]: 8400 nM; fold of cross-resistant, CCRF-CEM/VBL vs IC50 of the parent cell line [5]: [0.71x]

**Q.** How did the IC50 [1] turn out when `CNC(=O)OCc1c(COC(=O)NC)c(-c2ccccc2)n2c1Cc1ccccc1-2` [DA-1022, Methylcarbamic acid 2-methylcarbamoyloxymethyl-3-phenyl-8H-3a-aza-cyclopenta[a] inden-1-ylmethylester] was run?
**A.** 357 nM

**Q.** And the IC50 [2]?
**A.** 556 nM

**Q.** What about the “fold of cross-resistant, CCRF-CEM/Taxol vs IC50 of the parent cell line” value (“fold of cross-resistant, CCRF-CEM/Taxol” below) [2] of the same compound?
**A.** [1.6x]

**Q.** And the IC50 [3]?
**A.** 5920 nM

**Q.** What about the IC50 [4] of the same compound?
**A.** 761 nM

**Q.** And the IC50 [5]?
**A.** 1620 nM

**Q.** What about the “fold of cross-resistant, CCRF-CEM/VBL vs IC50 of the parent cell line” value (“fold of cross-resistant, CCRF-CEM/VBL” for short) [5] of the same compound?
**A.** [4.5x]

**Q.** How did the IC50 [1] turn out when `COc1cc(-c2c(CO)c(CO)c3n2-c2ccccc2C3)cc(OC)c1OC` [DA-1128, (2-Hydroxymethyl-3-(3,4,5-trimethoxyphenyl)-8H-3a-aza-cyclopenta[a]inden-1-yl)-methanol] was run?
**A.** 2050 nM

**Q.** What about the IC50 [2] of the same compound?
**A.** 1040 nM

**Q.** What about the “fold of cross-resistant, CCRF-CEM/Taxol” value [2] of the same compound?
**A.** [0.50x]

**Q.** What about the IC50 [3] of the same compound?
**A.** 17600 nM

**Q.** What about the IC50 [4] of the same compound?
**A.** 30600 nM

**Q.** What about the IC50 [5] of the same compound?
**A.** 1140 nM

**Q.** What about the “fold of cross-resistant, CCRF-CEM/VBL” value [5] of the same compound?
**A.** [0.56x]

**Q.** Which IC50 [1] does the source give for `CCc1c(COC(=O)NC)c(COC(=O)NC)c2n1-c1ccccc1C2` [DA-1101, methyl carbamic acid 3-ethyl-2-methyl carbamoyloxymethyl-8H-3a-aza-cyclopenta[a]inden-1-ylmethyl ester] here?
**A.** 68 nM

**Q.** What about the IC50 [2] of the same compound?
**A.** 99 nM

**Q.** And the “fold of cross-resistant, CCRF-CEM/Taxol” value [2]?
**A.** [1.46x]

**Q.** What about the IC50 [3] of the same compound?
**A.** 670 nM

**Q.** And the IC50 [4]?
**A.** 707 nM

**Q.** What about the IC50 [5] of the same compound?
**A.** 78 nM

**Q.** And the “fold of cross-resistant, CCRF-CEM/VBL” value [5]?
**A.** [1.15x]

**Q.** How did the IC50 [1] turn out when `COc1ccccc1-c1c(CO)c(CO)c2n1-c1ccccc1C2` [DA-1123, (2-Hydroxymethyl-3-(2-methoxyphenyl)-8H-3a-aza-cyclopenta[a]inden-1-yl)methanol] was run?
**A.** 1010 nM

**Q.** And the IC50 [2]?
**A.** 2680 nM

**Q.** And the “fold of cross-resistant, CCRF-CEM/Taxol” value [2]?
**A.** [2.68x]

**Q.** What about the IC50 [3] of the same compound?
**A.** 8640 nM

**Q.** What about the IC50 [4] of the same compound?
**A.** 13400 nM

**Q.** What about the IC50 [5] of the same compound?
**A.** 1900 nM

**Q.** And the “fold of cross-resistant, CCRF-CEM/VBL” value [5]?
**A.** [1.89x]

**Q.** With `COc1cccc(OC)c1-c1c(CO)c(CO)c2n1-c1ccccc1C2` [DA-1126, (3-(2,6-Dimethoxyphenyl)-2-hydroxymethyl-8H-3a-aza-cyclopenta[a]inden-1-yl)methanol] as the compound, how does the IC50 [1] read?
**A.** 8140 nM

**Q.** What about the IC50 [2] of the same compound?
**A.** 741 nM

**Q.** And the “fold of cross-resistant, CCRF-CEM/Taxol” value [2]?
**A.** [0.09x]

**Q.** What about the IC50 [3] of the same compound?
**A.** 25500 nM

**Q.** And the IC50 [4]?
**A.** 43700 nM

**Q.** And the IC50 [5]?
**A.** 251 nM

**Q.** And the “fold of cross-resistant, CCRF-CEM/VBL” value [5]?
**A.** [0.03x]

**Q.** What does the source list for `COc1ccc(-c2c(CO)c(CO)c3n2Cc2ccccc2C3)cc1` [DA-1106, [2-Hydroxymethyl-3-(4-methoxyphenyl)-5,10-dihydropyrrolo[1,2-b]isoquinolin-1-yl]methanol]?
**A.** IC50 [1]: 228 nM; IC50 [2]: 232 nM; fold of cross-resistant, CCRF-CEM/Taxol vs IC50 of the parent cell line [2]: [1.02x]; IC50 [3]: 1940 nM; IC50 [4]: 1030 nM; IC50 [5]: 111 nM; fold of cross-resistant, CCRF-CEM/VBL vs IC50 of the parent cell line [5]: [0.49x]
